Measured values reported in patent US8796286B2, “Agent for treatment of liver diseases containing pyrazolopyrimidinone derivative” (Mezzion Pharma Co., Ltd., priority 2005, dated 2014).
Where two headings read alike, the source gives them in different places.

What was measured:
[1] = In vivo pharmacokinetics in portal hypertension patients (plasma HPLC); details: human
Procedure: Nine volunteers among portal hypertension patients who were in the criterion of age from 19-45 and weight over 45 kg (within 15% deviation of ideal body weight) participated in experiments. They were all volunteers who agreed in writing to join the experiments and were trustworthy, cooperative and willing to follow the rules.
A double blind method was used for the experiments. At 8-9 am on the test day, test medicines were given with 240 mL of water to volunteers. For 4 hours from the administration, they were fasted, and lunch was provided 4 hours later and dinner was provided 9 hours later. Blood samples were taken before the administration on the test day and at the 0.5th, 1st, 1.5th, 2nd, 2.5th, 3rd, 4th, 5th, 6th, 8th, 12th, 24th and 32nd hour after the administration. Blood plasma was isolated, followed by HPLC. 100 μL of 0.1 M sodium carbonate and 1.0 mL of ethyl ether were added to 0.5 mL of blood plasma, then mixed well for 1 minute, followed by centrifugation at 12,000 rpm for 3 minutes. Supernatant was obtained and organic solvent was volatilized using speed vac. Then, 100 μL of moving phase was added, followed by stirring.

[2] = Solubility (physicochemical properties)
[3] = system: collagen synthesis in hepatic stellate cells; test: Inhibitory effect on collagen synthesis using hepatic stellate cells (RT-PCR for collagen); type: cell-based, Sprague Dawley rat; details: for IC50: Rattus norvegicus, hepatic stellate cells pre-treated with 25 ng/mL PDGF for 24 hours, collagen RT-PCR relative to beta-actin, mean ± standard deviation
Procedure: The following experiments were performed to investigate the inhibition effect of pyrazolopyrimidinone derivative of the present invention on collagen synthesis. Hepatic stellate cells were isolated from Sprague Dawley white male rats (about 300 g in weight, n=10). First, ketamin was injected into the abdominal cavity to anesthetize the rats. The abdomen was opened and heparin was injected into the portal vein. Then, Hank's buffer solution containing 0.02% pronase and 0.015% collagenase was perfused through the liver for a required time to prepare liver in sections. The extracted liver was crushed on a sterilized petri-dish, then put in a buffer solution containing pronase and DNase, and the crushed liver was then homogenized on a sterilized petri-dish. The prepared sample was filtered with 100 μm nylon mesh in a 50 mL tube. Centrifugation was performed with 50 g for 2 minutes to separate nonparenchymal cells in supernatant. Centrifugation was performed again with 450 g at 4° C. for 10 minutes. The precipitate was floated in a buffer solution containing 25 μg/mL of DNase, followed by centrifugation with 450 g at 4° C. for 10 minutes, which was repeated twice. The final precipitate was floated in 21 mL of buffer solution, which was then mixed with 17 mL of 25% OptiPrep to prepare the final solution of 11.2% OptiPrep (1.058 cm^3). Cell suspension solution mixed with OptiPrep was carefully distributed into four 15 mL tubes containing 3 mL of 17% OptiPrep, to which 1 mL of buffer solution was added. Centrifugation was performed with 1400 g at 4° C. for 17 minutes, and as a result, pure hepatic stellate cells were obtained from the opaque layer between the buffer solution and […]. The separated hepatic stellate cells were suspended in DMEM (Dulbecco's Modified Eagle' Media), followed by washing. The cells were suspended again in DMEM supplemented with 10% FBS (Fetal Bovine Serum) and antibiotics, then inoculated into a culture vessel, which was cultured in a 37° C. 5% CO2 incubator. The culture medium was first replaced 24 hours later, and then replaced every 48 hours for sub-culture. Hepatic stellate cells sub-cultured 8 times were grouped by 2×10^5, which were pre-treated with 25 ng/mL of PDGF (Platelet Derived Growth Factor) for 24 hours. […] The total RNA was extracted and RT-PCR (Reverse Transcriptase Polymerase Chain Reaction) for collagen was performed. Based on the relative concentration to beta-actin, a target material was compared with other test samples. In order to determine the inhibitory effect of a target sample on collagen synthesis, inhibitory concentration 50% (IC50) was investigated, and the result is shown in Table 1.

[4] = system: portal hypertension model; test: Portal hypertension animal model (bile duct ligation): portal blood pressure, portal vein diameter, blood flow; type: in vivo, beagle dog; details: 10 mg/kg/day oral for two weeks; for Portal vein diameter / Blood flow rate (portal vein) / Portal blood pressure: bile duct ligated beagle dogs, mean ± standard deviation; for Portal vein diameter: Doppler ultrasonography
Procedure: The following experiments were performed to investigate the effect of pyrazolopyrimidinone derivative on portal hypertension. 12 beagle dogs weighing about 10 kg were divided into four groups (3 dogs were chosen per group randomly), and bile duct ligation was performed on them. […] The animals were fasted for 4 hours, then pentobarbital was intravenously injected to anesthetize them. A tube was inserted through the mesenteric vein to the portal vein to measure portal blood pressure. Doppler ultrasonography was also performed to measure the diameter of portal vein. Blood flow through the portal vein was measured by using the following mathematical chemistry FIG. 1, and the result is shown in Table 2. [formula]

[5] = system: collagen synthesis in liver, hepatic fibrosis model; test: Liver protective effect in DMN-induced hepatic fibrosis animal model (collagen type I/III immunohistological staining); type: in vivo, Sprague Dawley rat; details: 10 mg/kg/day oral for 2 weeks; for collagen synthesis in hepatic portal veins and around the portal veins (immunohistology): DMN 10 mg/kg i.p. three times per week for 2 weeks, versus solvent control
Procedure: The following experiments were performed to investigate the in vivo collagen synthesis inhibitory effect of pyrazolopyrimidinone derivative of the present invention. Sprague Dawley white female rats (having approximately 300 g in weight) were divided into 4 groups (5 rats per group), and hepatic fibrosis was induced in experimental groups except the wild type control group (Toxicology, 2001). DMN (dimethylnitrosamine) was injected into the abdominal cavity in a dose of 10 mg/kg serially for 2 weeks with a dose frequency of three times per week. […] Only triazole buffer was administered to the solvent control group. Two weeks later, the liver was extracted, fixed in 10% neutral formalin, embedded in paraffin and sliced by […]. Each section was treated with xylene to eliminate paraffin, followed by treatment with alcohol and 0.1% hydrogen peroxide (H2O2). After treatment with PBS, the sections were treated with polyclonal antiserum (Chemicon) against collagen type I diluted by 1:500 and polyclonal antiserum (BioGenesis) against collagen type III diluted by 1:100, at 37° C. for one hour. After washing, samples were treated with 1:200 diluted biotin-conjugated goat anti-rabbit IgG. Immunohistological staining was performed by reacting the samples with avidin-biotin complex (Vector Laboratories), then antigen-antibody complex was marked with 3-amino-9-ethylcarbazole (AEC), whose image was taken by optical microscope now shown in FIG. 1-4. The control group was treated with non-immunized horse serum instead of primary antibody.

[6] = pKa (physicochemical properties)
[7] = system: experimental cirrhosis models; details: dose-dependently; cited from earlier work

IC50 [3] [nM]	SMILES	blood flow rate through portal vein increase compared with solvent treated group [4] [%]	portal blood pressure decrease compared with solvent treated control group [4] [%]	Portal vein diameter [4] [mm]	Blood flow rate (portal vein) [4] [mL/min]	Portal blood pressure [4] [kPa]	collagen synthesis in hepatic portal veins and around the portal veins (immunohistology) [5]	also measured
0.8 ± 0.2	CCCOc1ccc(S(=O)(=O)NCCC2CCCN2C)cc1-c1nc2c(CCC)nn(C)c2c(=O)[nH]1 (stereo not shown) [Pyrazolopyrimidinone derivative, 5-[2-propyloxy-5-(1-methyl-2-pyrrolidinylethyl amidosulfonyl)phenyl]-1-methyl-3-propyl-1,6-dihydro-7H-pyrazolo(4,3-d)pyrimidin-7-one]	59.9	21	7.70 ± 0.26	932.31 ± 89.83	2.50 ± 0.20	remarkably inhibited	half-life, fold longer than vardenafil ([1]; in vivo): two fold; half-life ([1]; in vivo, po, 100 mg): 15.1 ± 3.5 h; solubility in acetic acid, methanol and chloroform ([2]; acetic acid, methanol and chloroform): soluble; solubility in water ([2]; water): insoluble; collagen synthesis inhibitory effect, times higher than sildenafil ([3]; ratio of IC50 versus sildenafil): 16 times; collagen synthesis inhibitory effect, times higher than vardenafil ([3]; ratio of IC50 versus vardenafil): 10 times; collagen synthesis inhibitory effect, times as excellent as other conventional PDE 5 inhibitors ([3]; versus other conventional PDE 5 inhibitors (Table 1)): 10-16 times; inhibition of collagen synthesis compared with the sildenafil treated group ([5]; DMN rats): greater than that in the sildenafil treated group; pKa1 [6]: 6.5; pKa2 [6]: 12.5
7.8 ± 1.7	CCCc1nc(C)c2c(=O)[nH]c(-c3cc(S(=O)(=O)N4CCN(CC)CC4)ccc3OCC)nn12 [Vardenafil, vardenafil]	24.8	9	7.43 ± 0.21	729.29 ± 83.23	2.87 ± 0.25		half-life ([1]; plasma, patients with portal hypertension, 10 mg oral, mean ± standard deviation, read-out: Half-life (converted)): 6.3 ± 2.1 h
13.1 ± 2.3	CCCc1nn(C)c2c(=O)[nH]c(-c3cc(S(=O)(=O)N4CCN(C)CC4)ccc3OCC)nc12 [Sildenafil, sildenafil]	29.1	7	7.47 ± 0.21	754.47 ± 80.24	2.93 ± 0.25	remarkably inhibited	half-life ([1]; plasma, patients with portal hypertension, 50 mg oral, mean ± standard deviation, read-out: Half-life (converted)): 4.5 ± 1.2 h; Portal blood pressure [7]: increases; blood flow through mesenteria [7]: increases
